# Values joined by “and” are separate entries in the source; they are usually repeats but may differ in a detail not shown here. Equal entries are not always repeated. Where two headings read alike, the source gives them in different places.
# Legend:
# [1] = system: SKOV3 cells; assay: Growth assay (IncuCyte confluence), SKOV3; assay type: cell-based, human; parameters: key to Growth (Figure 6A): % confluence; conditions: for Growth (Figure 6A): SKOV3
# Protocol: (§1) Cells were seeded on 96-well flat bottom plates at approximately 3000 cells/well and incubated in growth medium (DMEM/F12 supplemented with 10% FBS, 2 mM glutamine) for 24 h. The next day, the growth medium was aspirated and exchanged with 300 μL/well of growth medium containing compounds at the indicated concentration. For live cell analysis, plates were placed in the IncuCyte system (Essen Bioscience), which was housed in a cell incubator (37°C, humidified atmosphere composed of 95% air and 5% CO2) and confluence measured at 6-h intervals or at the assay endpoint when untreated control cells reached a confluency >90%. Antibiotics (10 U/mL penicillin and 10 μg/ml streptomycin) were included in the treatment solutions.
# (§2) Growth curves were generated using the Gompertz function of OriginPro software: y=ae^−e^(−k(x−xc))
# (§3) Where a is the maximum confluence or upper asymptote, k is the growth rate coefficient, xc is the time point at which 50% confluence is reached (inflection point) and e is Euler’s number. Cell growth data are shown as % confluence.
# [2] = system: HPAFII cells; assay: Growth assay (IncuCyte confluence), HPAFII; assay type: cell-based, human; parameters: key to Growth (Figure 6A) / cell confluence (Figure 6F): % confluence
# Protocol: as §1, §2, §3
# Synergism between drug combinations was quantified using ZIP synergy scoring as calculated by SynergyFinder ([Yadav et al., 2015]).
# [3] = biological target: T1, SNAT1 and SNAT2 (Homo sapiens, UniProt Q9H2H9); assay: FMP assay in HCC1806 clones C10 (ASCT2ko) and D126 (ASCT2ko, SNAT2ko); assay type: cell-based; conditions: D126 cells
# T1 construct: endogenous in cells; host or cells: HCC1806 clone C10 (ASCT2ko) and clone D126 (ASCT2ko, SNAT2ko), amino acid depleted for 24 h
# T1 sequence (Q9H2H9 1-487): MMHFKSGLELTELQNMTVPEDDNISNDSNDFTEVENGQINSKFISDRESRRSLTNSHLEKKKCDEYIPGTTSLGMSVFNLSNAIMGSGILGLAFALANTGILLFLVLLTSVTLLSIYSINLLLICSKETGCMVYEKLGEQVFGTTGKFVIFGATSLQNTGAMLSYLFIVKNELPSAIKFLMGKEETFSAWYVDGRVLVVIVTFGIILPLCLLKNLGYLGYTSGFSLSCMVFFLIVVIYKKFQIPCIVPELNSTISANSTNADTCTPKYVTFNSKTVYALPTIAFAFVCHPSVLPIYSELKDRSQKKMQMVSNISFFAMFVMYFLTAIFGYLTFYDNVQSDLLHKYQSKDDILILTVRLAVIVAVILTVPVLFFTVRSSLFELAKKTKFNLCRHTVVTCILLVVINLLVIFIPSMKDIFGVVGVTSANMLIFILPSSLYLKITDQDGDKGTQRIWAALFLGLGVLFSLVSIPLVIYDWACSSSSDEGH
# Protocol: To delete the SNAT2 (SLC38A2) gene in modified HCC1806 cells (clone C10 nullizygous for ASCT2 ([Broer et al., 2019])), the GeneArt CRISPR Nuclease Vector with OFP Reporter Kit (Invitrogen; A21174) was employed and complementary 19–20 bp long single-stranded oligonucleotides with overhangs were designed to produce a guide RNA (gRNA) for the Cas9 nuclease that would target exon 7 of the SNAT2 gene. Colonies were analysed by sequencing using the U6 primer included in the GeneArt CRISPR Nuclease Vector with OFP Reporter kit. Plasmids that contained the correct CRISPR nuclease construct were then used to transfect HCC1806 cells with Lipofectamine 2000 (Invitrogen). Prior to transfection, medium was replaced with 2 ml of fresh DMEM/F-12 (supplemented with 10% heat-inactivated FBS and 2 mM glutamine). Plasmid DNA (4 µg) and 10 µL of Lipofectamine 2000 were incubated separately for 5 min at room temperature in 500 µl of Opti-MEM (Invitrogen) before being combined and incubated for a further 30 min at room temperature. The DNA-Lipofectamine complex was then added to the cells in a dropwise manner and allowed to be absorbed over 6 h at 37°C, after which the medium was renewed with fresh DMEM/F-12. Cells were checked for red fluorescence using an EVOS FL cell imaging system (Thermo Fisher Scientific) 48–72 h post transfection. Subsequently, cells were detached using 0.25% Trypsin EDTA. After harvesting and washing thrice with PBS (pH 7.4), cells were resuspended in PBS (pH 7.4) supplemented with 5 mM glucose and 1% dialysed and heat inactivated FBS and passed through a 100 μm cell strainer. The cell filtrate was then pelleted once more and resuspended in the same buffer. Cells were sorted using an ARIA II FACS machine and individually dispensed into the wells of a 96-well plate. Nullizygous clones were identified using a series of assays including the FLIPR membrane potential assay, western blotting and sequencing.
# The FLIPR Membrane Potential Blue Explorer Kit (Molecular Devices) was used to characterise inhibitors and to optimise a high-throughput compound screen. Cells were seeded at approximately 60,000 cells/well on a 96-well plate and allowed to attach and grow overnight in a cell incubator. The next day, the cells were washed once with mHBSS and incubated in a starvation medium (composed of mHBSS with 1% dialysed heat-inactivated FBS, 23 mM NaHCO3, 10 U/ml penicillin and 10 μg/ml streptomycin) for 24 h. Cells were then washed once with mHBSS and incubated with 50 µl of the mHBSS-resuspended FMP assay dye and 50 µl of mHBSS (with or without inhibitors) and incubated at room temperature for 30 min. The plate was then placed in an EnSpire Multimode plate reader (PerkinElmer) and four sequential measurements of fluorescence were recorded as a baseline reference. Immediately after the baseline measurements were taken, 25 µl of 5 mM glutamine dissolved in mHBSS was injected into each well and the plate was shaken orbitally for 5 s before a series of consecutive fluorescence measurements were taken. The excitation wavelength was set to 530 nm and the emission was detected at 565 nm. The Δ fluorescent signal reported in the figures was taken 30 s after substrate addition. After the assay was complete, the liquid content of the plate was carefully removed, and the cell monolayer inspected to ensure it remained intact throughout the course of the assay.
smiles,measurement,setting,value
"Cc1ccc(S(=O)(=O)N(C)c2ccsc2C(=O)NCc2ccccc2C(F)(F)F)cc1 [Compound 57_E, 3-(N-methyl (4-methylphenyl)sulfonamido)-N-(2-trifluoromethylbenzyl)thiophene-2-carboxamide]",growth of SKOV3 cells,[1]; 57E 20 µM alone,did not slow growth
same,tolerated concentration,"[1]; SKOV3, growth medium",up to 30 μM
same,Growth (Figure 6A),[1]; concentration 1,88.8 and 91.35 and 86.25
same,Growth (Figure 6A),[1]; concentration 3,85.9 and 94.3 and 88.85
same,Growth (Figure 6A),[1]; concentration 10,89 and 93.8 and 85
same,Growth (Figure 6A),[1]; concentration 30,64.8 and 80.1 and 77.7
same,Growth (Figure 6A),[1]; concentration 100,70.05 and 72.4 and 76.75
same,tolerated concentration,[2],≤ 100 µM
same,Growth (Figure 6A),[2]; concentration 1,93.8 and 96.25 and 96.4
same,Growth (Figure 6A),[2]; concentration 3,93.35 and 98.85 and 97.6
same,Growth (Figure 6A),[2]; concentration 10,91.1 and 94.2 and 97.05
same,Growth (Figure 6A),[2]; concentration 30,73 and 75.75 and 89.85
same,Growth (Figure 6A),[2]; concentration 100,46.05 and 59.8 and 57.25
same,tolerated concentration,[2]; growth medium,up to 30 μM
"N[C@@H](CCC(=O)NO)C(=O)O [GHX, L-glutamic acid γ-monohydroxamate]",block of glutamine (1 mM) FMP signal,[3],still blocked
same,FMP fluorescence,"[3]; time 0, replicates 1-10",22435 and 17495 and 17429 and 17955 and 18811 and 18812 and 18737 and 18055 and 17050 and 17347
same,FMP fluorescence,"[3]; time 12, replicates 1-10",20191
same,FMP fluorescence,"[3]; time 30, replicates 1-10",20609 and 15706 and 15219 and 15815 and 16260 and 16292 and 16468 and 15594 and 14527 and 15164
same,FMP fluorescence,"[3]; time 40, replicates 1-10",20541 and 15480 and 15193 and 15674 and 16277 and 16260 and 16583 and 15586 and 14696 and 15217
same,FMP fluorescence,"[3]; time 50, replicates 1-10",20610 and 15277 and 15074 and 15756 and 16154 and 16238 and 16249 and 15554 and 14656 and 15194
same,FMP fluorescence,"[3]; time 60, replicates 1-10",20690 and 15464 and 15031 and 15758 and 16045 and 16010 and 16126 and 15471 and 14546 and 15121
same,FMP fluorescence,"[3]; time 70, replicates 1-10",20527 and 15130 and 14967 and 15329 and 16082 and 16096 and 16209 and 15213 and 14316 and 15085
same,FMP fluorescence,"[3]; time 80, replicates 1-10",20404 and 15072 and 14875 and 15595 and 16009 and 15975 and 15951 and 15190 and 14182 and 15130
same,FMP fluorescence,"[3]; time 90, replicates 1-10",20524 and 15134 and 14788 and 15354 and 15654 and 15782 and 15863 and 15065 and 14296
same,FMP fluorescence,"[3]; time -10, replicates 1-10",22909 and 17766 and 17765 and 18446 and 19408 (2×) and 19505 and 18694 and 17349 and 17632
same,FMP fluorescence,"[3]; time -20, replicates 1-10",23556 and 18431 and 18738 and 19301 and 20185 and 20456 and 20335 and 19156 and 18269 and 18621

# — paper PMC9532951, “Identification and characterization of a novel SNAT2 (SLC38A2) inhibitor reveals synergy with glucose transport inhibition in cancer cells” (Frontiers in Pharmacology, 2022)
